Measured values reported in PMC10720285 (ACS Omega, 2023).

Tests used:
Type in all cases: cell-based
A549 = experiment: MTT antiproliferative assay, A549; conditions: Homo sapiens, A549, 72 h, read-out: IC50 values A549
HepG2 = experiment: MTT antiproliferative assay, HepG2; conditions: Homo sapiens, HepG2, 72 h, read-out: IC50 values HepG2
MCF7 = experiment: MTT antiproliferative assay, MCF7; conditions: Homo sapiens, MCF7, 72 h, read-out: IC50 values MCF7
MCF-10A = experiment: MTT cytotoxicity assay, noncancerous MCF-10A; conditions: Homo sapiens, 72 h, read-out: IC50 values MCF-10A

## CCOC(=O)NC1=C(C#N)C(c2cccs2)C2=C(CCCC2=O)O1 (centres unmarked) [Compound 14, Ethyl (3-Cyano-5-oxo-4-(thiophen-2-yl)-5,6,7,8-tetrahydro-4H-chromen-2-yl)carbamate]
A549
  IC50: 40.4 ± 3.15 µM
HepG2
  IC50: 37.2 ± 1.45 µM
MCF7
  IC50: 39.3 ± 3.12 µM

## Nc1nc(=O)[nH]c2c1C(c1cccs1)C1=C(CCCC1=O)O2 (centres unmarked) [Compound 4a, 4-Amino-5-(thiophen-2-yl)-5,7,8,9-tetrahydro-2H-chromeno[2,3-d]pyrimidine-2,6(1H)-dione]
A549
  IC50: 14.9 ± 3.12 µM
MCF-10A
  IC50: 60.1 ± 2.31 µM
HepG2
  IC50: 13.7 ± 3.81 µM
MCF7
  IC50: 14.3 ± 2.05 µM

## N#CC1=C(N)OC2=C(C(=O)CCC2)C1c1cccs1 (centres unmarked) [Compound 1, 2-Amino-5-oxo-4-(thiophen-2-yl)-5,6,7,8-tetrahydro-4H-chromene-3-carbonitrile]
A549
  IC50: 36.3 ± 3.37 µM
HepG2
  IC50: 33.9 ± 3.34 µM
MCF7
  IC50: 39.8 ± 3.35 µM

## N=c1c2c(ncn1N)OC1=C(C(=O)CCC1)C2c1cccs1 (centres unmarked) [Compound 3, 3-Amino-4-imino-5-(thiophen-2-yl)-3,4,5,7,8,9-hexahydro-6H-chromeno[2,3-d]pyrimidin-6-one]
A549
  IC50: 1.87 ± 0.32 µM
MCF-10A
  IC50: 77.3 ± 3.22 µM
HepG2
  IC50: 2.02 ± 0.15 µM
MCF7
  IC50: 1.61 ± 0.12 µM

## Nc1c2c(nc(=S)n1-c1ccccc1)OC1=C(C(=O)CCC1)C2c1cccs1 (centres unmarked) [Compound 7, 4-Amino-3-phenyl-5-(thiophen-2-yl)-2-thioxo-2,3,5,7,8,9-hexahydro-6H-chromeno[2,3-d]pyrimidin-6-one]
A549
  IC50: 7.28 ± 1.34 µM
MCF-10A
  IC50: 78.5 ± 2.05 µM
HepG2
  IC50: 6.26 ± 0.32 µM
MCF7
  IC50: 5.6 ± 1.12 µM

## CC(=O)N(C(C)=O)C1=C(C#N)C(c2cccs2)C2=C(CCCC2=O)O1 (centres unmarked) [Compound 17, N-Acetyl-N-(3-cyano-5-oxo-4-(thiophen-2-yl)-5,6,7,8-tetrahydro-4H-chromen-2-yl)acetamide]
A549
  IC50: 24.3 ± 3.88 µM
HepG2
  IC50: 25.3 ± 1.34 µM
MCF7
  IC50: 29 ± 2.38 µM

## N=c1c2c(nc(-c3ccccc3)n1N)OC1=C(C(=O)CCC1)C2c1cccs1 (centres unmarked) [Compound 19, 3-Amino-4-imino-2-phenyl-5-(thiophen-2-yl)-3,4,5,7,8,9-hexahydro-6H-chromeno[2,3-d]pyrimidin-6-one]
A549
  IC50: 14.3 ± 1.96 µM
MCF-10A
  IC50: 60.5 ± 1.94 µM
HepG2
  IC50: 13.3 ± 1.96 µM
MCF7
  IC50: 15.2 ± 1.65 µM

## CCO/C=N/C1=C(C#N)C(c2cccs2)C2=C(CCCC2=O)O1 (centres unmarked) [Compound 2, Ethyl (E)-N-(3-Cyano-5-oxo-4-(thiophen-2-yl)-5,6,7,8-tetrahydro-4H-chromen-2-yl)formimidate]
A549
  IC50: 29.9 ± 3.05 µM
HepG2
  IC50: 27.3 ± 3.87 µM
MCF7
  IC50: 29.4 ± 2.35 µM

## COc1cccc2c1C(=O)c1c(O)c3c(c(O)c1C2=O)C[C@@](O)(C(=O)CO)C[C@@H]3O[C@H]1C[C@H](N)[C@H](O)[C@H](C)O1 [doxorubicin, reference compound]
A549
  IC50: 2.22 ± 0.22 µM
MCF-10A
  IC50: 87.3 ± 1.47 µM
HepG2
  IC50: 2.71 ± 0.12 µM
MCF7
  IC50: 1.68 ± 0.11 µM

## Nc1nc(=S)[nH]c2c1C(c1cccs1)C1=C(CCCC1=O)O2 (centres unmarked) [Compound 4b, 4-Amino-5-(thiophen-2-yl)-2-thioxo-1,2,5,7,8,9-hexahydro-6H-chromeno[2,3-d]pyrimidin-6-one]
A549
  IC50: 17.1 ± 3.17 µM
MCF-10A
  IC50: 58.1 ± 2.34 µM
HepG2
  IC50: 17.8 ± 2.04 µM
MCF7
  IC50: 18.8 ± 3.19 µM

## O=C1CCCC2=C1C(c1cccs1)C1=C(NC(=O)N3CCN=C13)O2 (centres unmarked) [Compound 15, 12-(Thiophen-2-yl)-2,6,8,9,10,12-hexahydro-5H-chromeno[3,2-e]imidazo[1,2-c]pyrimidine-5,11(3H)-dione]
A549
  IC50: 19 ± 3.45 µM
MCF-10A
  IC50: 52.3 ± 2.18 µM
HepG2
  IC50: 19.3 ± 2.06 µM
MCF7
  IC50: 19.3 ± 3.37 µM

## N#CCc1nc(N)c2c(n1)OC1=C(C(=O)CCC1)C2c1cccs1 (centres unmarked) [Compound 11, 2-(4-Amino-6-oxo-5-(thiophen-2-yl)-6,7,8,9-tetrahydro-5H-chromeno[2,3-d]pyrimidin-2-yl)acetonitrile]
A549
  IC50: 50.7 ± 3.23 µM
HepG2
  IC50: 50.5 ± 3.16 µM
MCF7
  IC50: 60.1 ± 3.45 µM

## NC(=S)Cc1nc(N)c2c(n1)OC1=C(C(=O)CCC1)C2c1cccs1 (centres unmarked) [Compound 13, 2-(4-Amino-6-oxo-5-(thiophen-2-yl)-6,7,8,9-tetrahydro-5H-chromeno[2,3-d]pyrimidin-2-yl)ethanethioamide]
A549
  IC50: 19.2 ± 3.88 µM
MCF-10A
  IC50: 51.6 ± 1.98 µM
HepG2
  IC50: 19.3 ± 2.07 µM
MCF7
  IC50: 18.1 ± 2.05 µM
